The source of these data is patent publication US20230247994A1, “HETEROCYCLENE DERIVATIVES AS PEST CONTROL AGENTS” (Bayer Aktiengesellschaft, priority 2020, published 2023).

What all share (assay type): in vivo
One test concerns Diabrotica balteata. The test can be described thus: Diabrotica balteata spray test (germinated wheat grains). The settings on record: 168 h, application rate 100 g/ha (=32 μg/cavity), after 7 days, beetle larvae on wheat, 100% = all wheat plants grown as in untreated, uninfected control, read-out: efficacy in %. The text has this:
Diabrotica Balteata—Spray Test Solvent: 78 parts by weight of acetone • • 1.5 parts by weight of dimethylformamide Emulsifier: alkylaryl polyglycol ether An appropriate active ingredient formulation is produced by dissolving 1 part by weight of active ingredient with the stated parts by weight of solvent and making the solution up to the desired concentration with water containing an emulsifier concentration of 1000 ppm. Further test concentrations are produced by diluting the formulation with emulsifier-containing water. Pre-swollen wheat grains (Triticum aestivum) are incubated in a multiwell plate filled with agar and a little water for one day (5 seed grains per cavity). The germinated wheat grains are sprayed with an active ingredient formulation of the desired concentration. Subsequently, each cavity is infected with 10-20 beetle larvae of Diabrotica balteata. After 7 days, efficacy in % is determined. 100% means that all wheat plants have grown as in the untreated, uninfected control; 0% means that no wheat plant has grown.

The next test relates to Myzus persicae. The test can be described thus: Myzus persicae spray test (bell pepper plants). The settings on record: application rate 20 ppm, after 6 days, 100% = all aphids killed. The text has this:
Myzus persicae—spray test Solvent: 14 parts by weight of dimethylformamide Emulsifier: alkylaryl polyglycol ether An appropriate active ingredient formulation is produced by dissolving 1 part by weight of active ingredient with the stated parts by weight of solvent and making the solution up to the desired concentration with water containing an emulsifier concentration of 1000 ppm. Further test concentrations are produced by diluting the formulation with emulsifier-containing water. If the addition of ammonium salts or/and penetration enhancers is required, these are each added in a concentration of 1000 ppm to the formulation solution. Bell pepper plants (Capsicum annuum) severely infested with the green peach aphid (Myzus persicae) are treated by spraying with the active ingredient formulation in the desired concentration. After 6 days, the kill in % is determined. 100% means that all of the aphids have been killed; 0% means that none of the aphids have been killed.

For a further test, the system named is Spodoptera frugiperda. The test can be described thus: Spodoptera frugiperda spray test (maize leaf disks). The settings on record: foliar, 168 h, application rate 100 g/ha, caterpillars, after 7 days, 100% = all caterpillars killed, read-out: efficacy in %. The text has this: Spodoptera frugiuerda—Spray Test
Solvent: 78.0 parts by weight of acetone • • 1.5 parts by weight of dimethylformamide
Emulsifier: alkylaryl polyglycol ether
An appropriate active ingredient formulation is produced by dissolving 1 part by weight of active ingredient with the stated parts by weight of solvent and making the solution up to the desired concentration with water containing an emulsifier concentration of 1000 ppm. Further test concentrations are produced by diluting the formulation with emulsifier-containing water.
Leaf disks of maize (Zea mays) are sprayed with an active ingredient formulation of the desired concentration and, after drying, populated with caterpillars of the fall armyworm (Spodopterafrugiperda).
After 7 days, efficacy in % is determined. 100% means that all of the caterpillars have been killed; 0% means that none of the caterpillars have been killed.

Structures are written as SMILES.

For `CCS(=O)(=O)c1c(-c2nc3cc4c(cc3n2C)OC(F)(F)C(F)(F)O4)nc(C2CC2)n1C` [Example I-9, 2-[2-Cyclopropyl-5-(ethylsulfonyl)-1-methyl-1H-imidazol-4-yl]-6,6,7,7-tetrafluoro-1-methyl-6,7-dihydro-1H-[1,4]dioxino[2,3-f]benzimidazole], the pest or weed control at 100 g/ha in the test with Diabrotica balteata is 100%; in the test on Spodoptera frugiperda, 83%. The “kill in % (efficacy)” value in the test with Myzus persicae amounted to 99%.
